Test results from ChEMBL document CHEMBL3046801, “Synthesis of 2-R1-2-(4-(2-fluoroethoxy)benzamido)acetate as potential PET imaging agents” (Med Chem Res, 2012).

Assays:
Brain [1] = assay: Biodistribution in tumor bearing Mus musculus KM (mouse) brain at 5 min by microPET imaging analysis; assay type: ADME, organism-based; conditions: in vivo
Heart [2] = assay: Biodistribution in tumor bearing Mus musculus KM (mouse) heart at 60 min by microPET imaging analysis; assay type: ADME, organism-based; conditions: in vivo, 1 h
Liver [3] = assay: Biodistribution in tumor bearing Mus musculus KM (mouse) liver at 60 min by microPET imaging analysis; assay type: ADME, organism-based; conditions: in vivo, 1 h
Brain [4] = assay: Biodistribution in tumor bearing Mus musculus KM (mouse) brain at 30 min by microPET imaging analysis; assay type: ADME, organism-based; conditions: in vivo, 0.5 h
Liver [5] = assay: Biodistribution in tumor bearing Mus musculus KM (mouse) liver at 120 min by microPET imaging analysis; assay type: ADME, organism-based; conditions: in vivo, 2 h
Heart [6] = assay: Biodistribution in tumor bearing Mus musculus KM (mouse) heart by microPET imaging analysis; assay type: ADME, organism-based; conditions: in vivo, TDE = time-dependent effect
Muscle tissue [7] = assay: Biodistribution in tumor bearing Mus musculus KM (mouse) muscle by microPET imaging analysis; assay type: ADME, organism-based; conditions: in vivo, TDE = time-dependent effect
Blood [8] = assay: Biodistribution in tumor bearing Mus musculus KM (mouse) blood by microPET imaging analysis; assay type: ADME, organism-based; conditions: in vivo, TDE = time-dependent effect
Blood [9] = assay: Biodistribution in tumor bearing Mus musculus KM (mouse) blood at 15 min by microPET imaging analysis; assay type: ADME, organism-based; conditions: in vivo, 0.25 h
Kidney [10] = assay: Biodistribution in tumor bearing Mus musculus KM (mouse) kidney at 30 min by microPET imaging analysis; assay type: ADME, organism-based; conditions: in vivo, 0.5 h
Spleen [11] = assay: Biodistribution in tumor bearing Mus musculus KM (mouse) spleen at 60 min by microPET imaging analysis; assay type: ADME, organism-based; conditions: in vivo, 1 h
Kidney [12] = assay: Biodistribution in tumor bearing Mus musculus KM (mouse) kidney at 60 min by microPET imaging analysis; assay type: ADME, organism-based; conditions: in vivo, 1 h
Tumour [13] = assay: Biodistribution in Mus musculus KM (mouse) tumor at 60 min by microPET imaging analysis; assay type: ADME, organism-based, Neoplasm; conditions: in vivo, 1 h
Brain [14] = assay: Biodistribution in tumor bearing Mus musculus KM (mouse) brain at 60 min by microPET imaging analysis; assay type: ADME, organism-based; conditions: in vivo, 1 h
Brain [15] = assay: Biodistribution in tumor bearing Mus musculus KM (mouse) brain by microPET imaging analysis; assay type: ADME, organism-based; conditions: in vivo, TDE = time-dependent effect
Liver [16] = assay: Biodistribution in tumor bearing Mus musculus KM (mouse) liver at 15 min by microPET imaging analysis; assay type: ADME, organism-based; conditions: in vivo, 0.25 h
Lung [17] = assay: Biodistribution in tumor bearing Mus musculus KM (mouse) lung by microPET imaging analysis; assay type: ADME, organism-based; conditions: in vivo, TDE = time-dependent effect
Muscle tissue [18] = assay: Biodistribution in tumor bearing Mus musculus KM (mouse) muscle at 120 min by microPET imaging analysis; assay type: ADME, organism-based; conditions: in vivo, 2 h
Spleen [19] = assay: Biodistribution in tumor bearing Mus musculus KM (mouse) spleen at 5 min by microPET imaging analysis; assay type: ADME, organism-based; conditions: in vivo
Muscle tissue [20] = assay: Biodistribution in tumor bearing Mus musculus KM (mouse) muscle at 5 min by microPET imaging analysis; assay type: ADME, organism-based; conditions: in vivo
Lung [21] = assay: Biodistribution in tumor bearing Mus musculus KM (mouse) Lung at 60 min by microPET imaging analysis; assay type: ADME, organism-based; conditions: in vivo, 1 h
Heart [22] = assay: Biodistribution in tumor bearing Mus musculus KM (mouse) heart at 15 min by microPET imaging analysis; assay type: ADME, organism-based; conditions: in vivo, 0.25 h
Muscle tissue [23] = assay: Biodistribution in tumor bearing Mus musculus KM (mouse) muscle at 60 min by microPET imaging analysis; assay type: ADME, organism-based; conditions: in vivo, 1 h
Kidney [24] = assay: Biodistribution in tumor bearing Mus musculus KM (mouse) kidney at 15 min by microPET imaging analysis; assay type: ADME, organism-based; conditions: in vivo, 0.25 h
Nucleic Acid [25] = assay: Ratio of drug uptake in tumor to muscle in Mus musculus KM (mouse) at 15 min; assay type: ADME, nucleic-acid assay; conditions: in vivo, 0.25 h
Lung [26] = assay: Biodistribution in tumor bearing Mus musculus KM (mouse) Lung at 120 min by microPET imaging analysis; assay type: ADME, organism-based; conditions: in vivo, 2 h
Blood [27] = assay: Biodistribution in tumor bearing Mus musculus KM (mouse) blood at 5 min by microPET imaging analysis; assay type: ADME, organism-based; conditions: in vivo
Muscle tissue [28] = assay: Biodistribution in tumor bearing Mus musculus KM (mouse) muscle at 30 min by microPET imaging analysis; assay type: ADME, organism-based; conditions: in vivo, 0.5 h
Heart [29] = assay: Biodistribution in tumor bearing Mus musculus KM (mouse) heart at 120 min by microPET imaging analysis; assay type: ADME, organism-based; conditions: in vivo, 2 h
Heart [30] = assay: Biodistribution in tumor bearing Mus musculus KM (mouse) heart at 30 min by microPET imaging analysis; assay type: ADME, organism-based; conditions: in vivo, 0.5 h
[31] = Octanol-PBS partition coefficient of the compound at pH 7.4 by gamma counter; assay type: physicochemical; conditions: read-out: log KOW
Spleen [32] = assay: Biodistribution in tumor bearing Mus musculus KM (mouse) spleen at 15 min by microPET imaging analysis; assay type: ADME, organism-based; conditions: in vivo, 0.25 h
Brain [33] = assay: Biodistribution in tumor bearing Mus musculus KM (mouse) brain at 15 min by microPET imaging analysis; assay type: ADME, organism-based; conditions: in vivo, 0.25 h
Muscle tissue [34] = assay: Biodistribution in tumor bearing Mus musculus KM (mouse) muscle at 15 min by microPET imaging analysis; assay type: ADME, organism-based; conditions: in vivo, 0.25 h
Nucleic Acid [35] = assay: Ratio of drug uptake in tumor to muscle in Mus musculus KM (mouse) at 120 min; assay type: ADME; conditions: in vivo, 2 h
Tumour [36] = assay: Biodistribution in Mus musculus KM (mouse) tumor at 15 min by microPET imaging analysis; assay type: ADME, organism-based, Neoplasm; conditions: in vivo, 0.25 h
Spleen [37] = assay: Biodistribution in tumor bearing Mus musculus KM (mouse) spleen at 30 min by microPET imaging analysis; assay type: ADME, organism-based; conditions: in vivo, 0.5 h
Lung [38] = assay: Biodistribution in tumor bearing Mus musculus KM (mouse) Lung at 5 min by microPET imaging analysis; assay type: ADME, organism-based; conditions: in vivo
Kidney [39] = assay: Biodistribution in tumor bearing Mus musculus KM (mouse) kidney by microPET imaging analysis; assay type: ADME, organism-based; conditions: in vivo, TDE = time-dependent effect
Blood [40] = assay: Biodistribution in tumor bearing Mus musculus KM (mouse) blood at 30 min by microPET imaging analysis; assay type: ADME, organism-based; conditions: in vivo, 0.5 h
Lung [41] = assay: Biodistribution in tumor bearing Mus musculus KM (mouse) Lung at 15 min by microPET imaging analysis; assay type: ADME, organism-based; conditions: in vivo, 0.25 h
Nucleic Acid [42] = assay: Ratio of drug uptake in tumor to muscle in Mus musculus KM (mouse) at 60 min; assay type: ADME, nucleic-acid assay; conditions: in vivo, 1 h
Heart [43] = assay: Biodistribution in tumor bearing Mus musculus KM (mouse) heart at 5 min by microPET imaging analysis; assay type: ADME, organism-based; conditions: in vivo
Kidney [44] = assay: Biodistribution in tumor bearing Mus musculus KM (mouse) kidney at 5 min by microPET imaging analysis; assay type: ADME, organism-based; conditions: in vivo
Spleen [45] = assay: Biodistribution in tumor bearing Mus musculus KM (mouse) spleen at 120 min by microPET imaging analysis; assay type: ADME, organism-based; conditions: in vivo, 2 h
Tumour [46] = assay: Biodistribution in Mus musculus KM (mouse) tumor at 5 min by microPET imaging analysis; assay type: ADME, organism-based, Neoplasm; conditions: in vivo
Liver [47] = assay: Biodistribution in tumor bearing Mus musculus KM (mouse) liver by microPET imaging analysis; assay type: ADME, organism-based; conditions: in vivo, TDE = time-dependent effect
Liver [48] = assay: Biodistribution in tumor bearing Mus musculus KM (mouse) liver at 30 min by microPET imaging analysis; assay type: ADME, organism-based; conditions: in vivo, 0.5 h
Kidney [49] = assay: Biodistribution in tumor bearing Mus musculus KM (mouse) kidney at 120 min by microPET imaging analysis; assay type: ADME, organism-based; conditions: in vivo, 2 h
Brain [50] = assay: Biodistribution in tumor bearing Mus musculus KM (mouse) brain at 120 min by microPET imaging analysis; assay type: ADME, organism-based; conditions: in vivo, 2 h
Nucleic Acid [51] = assay: Ratio of drug uptake in tumor to muscle in Mus musculus KM (mouse) at 30 min; assay type: ADME, nucleic-acid assay; conditions: in vivo, 0.5 h
Blood [52] = assay: Biodistribution in tumor bearing Mus musculus KM (mouse) blood at 60 min by microPET imaging analysis; assay type: ADME, organism-based; conditions: in vivo, 1 h
Liver [53] = assay: Biodistribution in tumor bearing Mus musculus KM (mouse) liver at 5 min by microPET imaging analysis; assay type: ADME, organism-based; conditions: in vivo
Tumour [54] = assay: Biodistribution in tumor of Mus musculus KM (mouse) by microPET imaging analysis; assay type: ADME, organism-based, Neoplasm; conditions: in vivo, TDE = time-dependent effect
Spleen [55] = assay: Biodistribution in tumor bearing Mus musculus KM (mouse) spleen by microPET imaging analysis; assay type: ADME, organism-based; conditions: in vivo, TDE = time-dependent effect
Blood [56] = assay: Biodistribution in tumor bearing Mus musculus KM (mouse) blood at 120 min by microPET imaging analysis; assay type: ADME, organism-based; conditions: in vivo, 2 h
Lung [57] = assay: Biodistribution in tumor bearing Mus musculus KM (mouse) Lung at 30 min by microPET imaging analysis; assay type: ADME, organism-based; conditions: in vivo, 0.5 h
Tumour [58] = assay: Biodistribution in Mus musculus KM (mouse) tumor at 120 min by microPET imaging analysis; assay type: ADME, organism-based, Neoplasm; conditions: in vivo, 2 h
Tumour [59] = assay: Biodistribution in Mus musculus KM (mouse) tumor at 30 min by microPET imaging analysis; assay type: ADME, organism-based, Neoplasm; conditions: in vivo, 0.5 h

For `O=C(O)CNC(=O)c1ccc(OCC[18F])cc1` [[18F]FEBA hydrolytic acid], the Drug uptake (Brain [1]) was 0.34 % ID/g, the Drug uptake (Heart [2]) was 0.22 % ID/g and the Drug uptake (Liver [3]) was 0.25 % ID/g. The Drug uptake (Brain [4]) was 0.12 % ID/g, the Drug uptake (Liver [5]) was 0.37 % ID/g and the Drug uptake (Heart [6]) was “tde”. For the same compound, the Drug uptake (Muscle tissue [7]) was “tde”, the Drug uptake (Blood [8]) was “tde” and the Drug uptake (Blood [9]) was 1.45 % ID/g. It also gave a Drug uptake (Kidney [10]) of 1.17 % ID/g, a Drug uptake (Spleen [11]) of 0.21 % ID/g and a Drug uptake (Kidney [12]) of 0.46 % ID/g. For the same compound, the Drug uptake (Tumour [13]) was 0.29 % ID/g, the Drug uptake (Brain [14]) was 0.06 % ID/g and the Drug uptake (Brain [15]) was “tde”. The Drug uptake (Liver [16]) was 1.08 % ID/g, the Drug uptake (Lung [17]) was “tde” and the Drug uptake (Muscle tissue [18]) was 0.14 % ID/g. The Drug uptake (Spleen [19]) was 1.12 % ID/g, the Drug uptake (Muscle tissue [20]) was 1.35 % ID/g and the Drug uptake (Lung [21]) was 0.18 % ID/g. It also gave a Drug uptake (Heart [22]) of 0.75 % ID/g, a Drug uptake (Muscle tissue [23]) of 0.15 % ID/g and a Drug uptake (Kidney [24]) of 5.15 % ID/g. For the same compound, the Ratio (Nucleic Acid [25]) was 1.09, the Drug uptake (Lung [26]) was 0.2 % ID/g and the Drug uptake (Blood [27]) was 4.57 % ID/g. For the same compound, the Drug uptake (Muscle tissue [28]) was 0.47 % ID/g, the Drug uptake (Heart [29]) was 0.25 % ID/g and the Drug uptake (Heart [30]) was 0.28 % ID/g. It also gave a logD [31] of -1.55, a Drug uptake (Spleen [32]) of 0.48 % ID/g and a Drug uptake (Brain [33]) of 0.23 % ID/g. It also gave a Drug uptake (Muscle tissue [34]) of 0.82 % ID/g, a Ratio (Nucleic Acid [35]) of 2.57 and a Drug uptake (Tumour [36]) of 0.89 % ID/g. The Drug uptake (Spleen [37]) was 0.22 % ID/g, the Drug uptake (Lung [38]) was 3.37 % ID/g and the Drug uptake (Kidney [39]) was “tde”. The Drug uptake (Blood [40]) was 0.39 % ID/g, the Drug uptake (Lung [41]) was 1.11 % ID/g and the Ratio (Nucleic Acid [42]) was 1.93. It also gave a Drug uptake (Heart [43]) of 2.24 % ID/g, a Drug uptake (Kidney [44]) of 17.9 % ID/g and a Drug uptake (Spleen [45]) of 0.2 % ID/g. The Drug uptake (Tumour [46]) was 1.72 % ID/g, the Drug uptake (Liver [47]) was “tde” and the Drug uptake (Liver [48]) was 0.38 % ID/g. For the same compound, the Drug uptake (Kidney [49]) was 0.32 % ID/g, the Drug uptake (Brain [50]) was 0.13 % ID/g and the Ratio (Nucleic Acid [51]) was 0.99. For the same compound, the Drug uptake (Blood [52]) was 0.18 % ID/g, the Drug uptake (Liver [53]) was 2.75 % ID/g and the Drug uptake (Tumour [54]) was “tde”. The Drug uptake (Spleen [55]) was “tde”, the Drug uptake (Blood [56]) was 0.3 % ID/g and the Drug uptake (Lung [57]) was 0.37 % ID/g. The Drug uptake (Tumour [58]) was 0.36 % ID/g and the Drug uptake (Tumour [59]) was 0.47 % ID/g.
